Assay results: patent publication US11524938B2, “Aromatic sulfonamide derivatives” (Bayer Pharma Aktiengesellschaft, priority 2016, dated 2022)

Target: T1, human P2X4 (Homo sapiens, UniProt Q99571)
T1 sequence (Q99571 1-388): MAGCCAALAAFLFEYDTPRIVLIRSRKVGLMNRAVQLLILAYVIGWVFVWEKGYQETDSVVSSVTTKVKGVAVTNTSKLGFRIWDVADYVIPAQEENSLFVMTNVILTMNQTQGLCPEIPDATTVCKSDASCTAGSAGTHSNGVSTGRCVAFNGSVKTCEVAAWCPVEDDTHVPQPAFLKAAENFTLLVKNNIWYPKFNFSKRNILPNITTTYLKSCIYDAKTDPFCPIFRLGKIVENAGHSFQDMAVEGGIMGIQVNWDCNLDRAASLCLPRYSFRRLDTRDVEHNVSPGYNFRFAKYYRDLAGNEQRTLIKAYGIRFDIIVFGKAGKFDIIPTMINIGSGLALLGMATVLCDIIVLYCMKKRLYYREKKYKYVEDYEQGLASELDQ
Assay: Human P2X4 HEK Cell FLIPR Assay
Type: cell-based
Settings: agonist Bz-ATP at EC80; for Emax: HEK293, HEK293 cells, percentage of maximal inhibition, read-out: Human P2X4 HEK Cells (FLIPR Assay) avg Efficacy [%]; for IC50: HEK293 cells, individual values listed where some fall outside detection range
Method in brief: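 HEK293 cells stably expressing human P2X4, Fluo8-AM loaded 30 min at 37° C, then compound 30 min at room temperature (0.5% DMSO, pH 7.4 buffer with 1.8 mM CaCl2). Bz-ATP at its daily-determined EC80 added; calcium fluorescence read over 120 sec; IC50 from peak RFU normalized to agonist control, triplicates.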

| SMILES | Emax | IC50 |
| --- | --- | --- |
| NS(=O)(=O)c1cc(NC(=O)Cc2ccc(C(F)F)cc2)ccc1-n1cc(Br)cn1 [Example 73, N-[4-(4-Bromo-1H-pyrazol-1-yl)-3-sulfamoylphenyl]-2-[4-(difluoromethyl)-phenyl]acetamide] | 52% | 168 nM |
| NS(=O)(=O)c1cc(NC(=O)Cc2ccccc2OC(F)F)ccc1-n1cc(C(F)(F)F)cn1 [Example 125, 2-[2-(Difluoromethoxy)phenyl]-N-{3-sulfamoyl-4-[4-(trifluoromethyl)-1H-pyrazol-1-yl]phenyl}acetamide] | 86% | 292 nM |
| NS(=O)(=O)c1cc(NC(=O)Cc2cccc(Cl)c2)ccc1-n1cc(C(F)(F)F)cn1 [Example 120, 2-(3-Chlorophenyl)-N-{3-sulfamoyl-4-[4-(trifluoromethyl)-1H-pyrazol-1-yl]phenyl}-acetamide] | 31% | > 25000 nM |
| NS(=O)(=O)c1cc(NC(=O)Cc2ccc(F)c(F)c2)ccc1-c1cncc(C(F)(F)F)c1 [Example 451, 2-(3,4-Difluorophenyl)-N-{3-sulfamoyl-4-[5-(trifluoromethyl)pyridin-3-yl]phenyl}acetamide] | 86% | 244 nM |
| NS(=O)(=O)c1cc(NC(=O)Cc2cccnc2Cl)ccc1-n1cc(C(F)(F)F)cn1 [Example 126, 2-(2-Chloropyridin-3-yl)-N-{3-sulfamoyl-4-[4-(trifluoromethyl)-1H-pyrazol-1-yl]phenyl}acetamide] | 92% | 1910 nM |
| CC(C)(O)c1cc(F)cc(-c2ccc(NC(=O)Cc3ccccc3Cl)cc2S(N)(=O)=O)c1 [Example 340, 2-(2-Chlorophenyl)-N-[3′-fluoro-5′-(2-hydroxypropan-2-yl)-2-sulfamoylbiphenyl-4-yl]acetamide] | 89% | 34 nM |
| NS(=O)(=O)c1cc(NC(=O)Cc2cc(F)c(F)cc2Cl)ccc1-n1cc(Cl)cn1 [Example 93, 2-(2-Chloro-4,5-difluorophenyl)-N-[4-(4-chloro-1H-pyrazol-1-yl)-3-sulfamoylphenyl]-acetamide] | 73% | 74 nM |
| Cc1nn(C)cc1-c1ccc(NC(=O)Cc2ccccc2F)cc1S(N)(=O)=O [Example 375, N-[4-(1,3-Dimethyl-1H-pyrazol-4-yl)-3-sulfamoylphenyl]-2-(2-fluorophenyl)acetamide] | 79% | 660 nM |
| CC(C(=O)Nc1cnn(-c2ccc(NC(=O)Cc3ccccc3Cl)cc2S(N)(=O)=O)c1)C(F)(F)F (racemic) [Example 508, N-[1-(4-{[(2-Chlorophenyl)acetyl]amino}-2-sulfamoylphenyl)-1H-pyrazol-4-yl]-3,3,3-trifluoro-2-methylpropanamide] | 63% | 172 nM |
| NS(=O)(=O)c1cc(NC(=O)Cc2ccc(F)cc2F)ccc1-c1ccc(Cl)nc1 [Example 466, N-[4-(6-Chloropyridin-3-yl)-3-sulfamoylphenyl]-2-(2,4-difluorophenyl)acetamide] | 91% | 363 nM |
| NS(=O)(=O)c1cc(NC(=O)Cc2cc(F)c(F)cc2Cl)ccc1-n1cc(F)cn1 [Example 161, 2-(2-Chloro-4,5-difluorophenyl)-N-[4-(4-fluoro-1H-pyrazol-1-yl)-3-sulfamoylphenyl]] | 43% | > 25000 nM |
| NS(=O)(=O)c1cc(NC(=O)Cc2cccc(C(F)(F)F)c2Cl)ccc1-n1cc(F)cn1 [Example 162, 2-[2-Chloro-3-(trifluoromethyl)phenyl]-N-[4-(4-fluoro-1H-pyrazol-1-yl)-3-sulfamoyl-phenyl]acetamide] | 92% | 19 nM |
| NS(=O)(=O)c1cc(NC(=O)Cc2ccccc2F)ccc1-n1cc(-c2ccncn2)cn1 [Example 405, 2-(2-Fluorophenyl)-N-{4-[4-(pyrimidin-4-yl)-1H-pyrazol-1-yl]-3-sulfamoylphenyl}acetamide] | 65% | 5670 nM |
| NS(=O)(=O)c1cc(NC(=O)Cc2ccc(F)cc2)ccc1-n1cc(Cl)cn1 [Example 84, N-[4-(4-Chloro-1H-pyrazol-1-yl)-3-sulfamoylphenyl]-2-(4-fluorophenyl)acetamide] | 29% | > 25000 nM |
| CN(C)c1nc(-c2ccc(NC(=O)Cc3ccccc3Cl)cc2S(N)(=O)=O)cs1 [Example 495, 2-(2-Chlorophenyl)-N-{4-[2-(dimethylamino)-1,3-thiazol-4-yl]-3-sulfamoylphenyl}acetamide] | 75% | 128 nM |

More lines, now with the values ahead:

| Emax | IC50 | SMILES |
| --- | --- | --- |
| 101% | 42 nM | CC(C)n1cc(-c2ccc(NC(=O)Cc3ccccc3F)cc2S(N)(=O)=O)cn1 [Example 343, 2-(2-Fluorophenyl)-N-{4-[1-(propan-2-yl)-1H-pyrazol-4-yl]-3-sulfamoylphenyl}-acetamide] |
| 81% | 1040 nM | NS(=O)(=O)c1cc(NC(=O)Cc2ccccc2Cl)ccc1-c1cnn(C2CCNCC2)c1 [Example 269, 2-(2-Chlorophenyl)-N-{4-[1-(piperidin-4-yl)-1H-pyrazol-4-yl]-3-sulfamoylphenyl}-acetamide] |
| 82% | 23 nM | NS(=O)(=O)c1cc(NC(=O)Cc2ccccc2Cl)ccc1-n1cc(-c2cnccn2)cn1 [Example 401, 2-(2-Chlorophenyl)-N-{4-[4-(pyrazin-2-yl)-1H-pyrazol-1-yl]-3-sulfamoylphenyl}acetamide] |
| 99% | 152 nM | NS(=O)(=O)c1cc(NC(=O)Cc2cc(Cl)ccc2F)ccc1-c1cnn(C2CC2)c1 [Example 371, 2-(5-Chloro-2-fluorophenyl)-N-[4-(1-cyclopropyl-1H-pyrazol-4-yl)-3-sulfamoylphenyl]acetamide] |
| 94% | 12 nM | CC(C)Cn1cc(-c2ccc(NC(=O)Cc3ccccc3Cl)cc2S(N)(=O)=O)cn1 [Example 328, 2-(2-Chlorophenyl)-N-{4-[1-(2-methylpropyl)-1H-pyrazol-4-yl]-3-sulfamoylphenyl}acetamide] |
| 94% | 11 nM | NS(=O)(=O)c1cc(NC(=O)Cc2ccccc2Cl)ccc1-c1cncc(F)c1 [Example 327, 2-(2-Chlorophenyl)-N-[4-(5-fluoropyridin-3-yl)-3-sulfamoylphenyl]acetamide] |
| 91% | 70 nM | NS(=O)(=O)c1cc(NC(=O)Cc2ccccc2C(F)F)ccc1-c1cnn(C(F)F)c1 [Example 225, 2-[2-(Difluoromethyl)phenyl]-N-{4-[1-(difluoromethyl)-1H-pyrazol-4-yl]-3-sulfamoyl-phenyl}acetamide] |
| 88% | 203 nM | NS(=O)(=O)c1cc(NC(=O)Cc2ccccc2Cl)ccc1-c1cnc(NC2CC2)nc1 [Example 299, 2-(2-Chlorophenyl)-N-{4-[2-(cyclopropylamino)pyrimidin-5-yl]-3-sulfamoylphenyl}acetamide] |
| 83% | 131 nM | NS(=O)(=O)c1cc(NC(=O)Cc2ccccc2Cl)ccc1-c1cn[nH]c1 [Example 367, 2-(2-Chlorophenyl)-N-[4-(1H-pyrazol-4-yl)-3-sulfamoylphenyl]acetamide] |
| 96% | 112 nM | NS(=O)(=O)c1cc(NC(=O)Cc2ccccc2Cl)ccc1-n1cc(C(=O)N2CC(F)(F)C2)cn1 [Example 440, 2-(2-Chlorophenyl)-N-(4-{4-[(3,3-difluoroazetidin-1-yl)carbonyl]-1H-pyrazol-1-yl}-3-sulfamoylphenyl)acetamide] |
